# According to ChEMBL document CHEMBL1201862, “PubChem BioAssay data set” (2004):
#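 Following 48 hours of exposure in 96-well plates, responses at five concentrations were used to interpolate endpoints linearly. GI50 is the concentration that inhibits growth by half.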 Active and inactive are the calls of the source. No stated cut-off is given here; in the data, active = GI50 up to about 1.1 µM and inactive = higher.
# Legend:
# Test in all cases: DTP human tumour cell line panel, 48 h
# 786-0 = tested on: 786-0
# DU-145 = tested on: DU-145
# EKVX = tested on: EKVX
# HCC 2998 = tested on: HCC 2998
# HCT-116 = tested on: HCT-116
# HOP-62 = tested on: HOP-62
# HOP-92 = tested on: HOP-92
# KM12 = tested on: KM12
# M14 = tested on: M14
# MCF7 = tested on: MCF7
# MOLT-4 = tested on: MOLT-4
# NCI-H23 = tested on: NCI-H23
# NCI-H522 = tested on: NCI-H522
# NCI/ADR-RES = tested on: NCI/ADR-RES
# SF-295 = tested on: SF-295
# SK-MEL-2 = tested on: SK-MEL-2
# SN12C = tested on: SN12C
# SNB-19 = tested on: SNB-19
# UACC-257 = tested on: UACC-257
# UACC-62 = tested on: UACC-62
Structure (SMILES),GI50 (786-0),GI50 (DU-145),GI50 (EKVX),GI50 (HCC 2998),GI50 (HCT-116),GI50 (HOP-62),GI50 (HOP-92),GI50 (KM12),GI50 (M14),GI50 (MCF7),GI50 (MOLT-4),GI50 (NCI-H23),GI50 (NCI-H522),GI50 (NCI/ADR-RES),GI50 (SF-295),GI50 (SK-MEL-2),GI50 (SN12C),GI50 (SNB-19),GI50 (UACC-257),GI50 (UACC-62)
COc1ccc2c(c1)N(C(C)=O)CN1C(=O)CCC21 (stereo not given),> 100 µM (inactive),> 100 µM (inactive),> 100 µM (inactive),> 100 µM (inactive),> 100 µM (inactive),> 100 µM (inactive),> 100 µM (inactive),> 100 µM (inactive),> 100 µM (inactive),> 100 µM (inactive),46 µM (inactive),> 100 µM (inactive),> 100 µM (inactive),> 100 µM (inactive),> 100 µM (inactive),> 100 µM (inactive),> 100 µM (inactive),> 100 µM (inactive),> 100 µM (inactive),> 100 µM (inactive)
C[C@]12CCC(=O)C=C1CC[C@@H]1[C@@H]2[C@@H](O)C[C@@]2(C)[C@H]1CC[C@]2(O)C(=O)CO [HYDROCORTISONE],> 100 µM (inactive),> 100 µM (inactive),> 82.4 µM (inactive),> 100 µM (inactive),> 100 µM (inactive),> 100 µM (inactive),> 100 µM (inactive),> 100 µM (inactive),> 100 µM (inactive),> 100 µM (inactive),> 100 µM (inactive),> 100 µM (inactive),> 100 µM (inactive),> 100 µM (inactive),> 100 µM (inactive),> 100 µM (inactive),31.8 µM (inactive),> 100 µM (inactive),> 100 µM (inactive),> 100 µM (inactive)
CSC1(Cc2ccccn2)C(=O)Nc2cccc([N+](=O)[O-])c21 (stereo not given),> 100 µM (inactive),> 100 µM (inactive),> 100 µM (inactive),> 100 µM (inactive),79.1 µM (inactive),> 100 µM (inactive),> 100 µM (inactive),> 100 µM (inactive),> 100 µM (inactive),76 µM (inactive),33.3 µM (inactive),> 100 µM (inactive),61.1 µM (inactive),> 100 µM (inactive),> 100 µM (inactive),> 100 µM (inactive),> 100 µM (inactive),> 100 µM (inactive),> 100 µM (inactive),> 100 µM (inactive)
COc1ccc(OC)c(N2C(=O)/C(=C\c3ccccc3)SC2c2cc(OC)c(OC)c(OC)c2)c1 (stereo not given),> 96.6 µM (inactive),> 100 µM (inactive),> 83.6 µM (inactive),> 100 µM (inactive),> 100 µM (inactive),> 100 µM (inactive),17.5 µM (inactive),61.5 µM (inactive),> 100 µM (inactive),3.24 µM (inactive),52.6 µM (inactive),> 80.5 µM (inactive),30.9 µM (inactive),> 71.3 µM (inactive),47.5 µM (inactive),> 100 µM (inactive),> 100 µM (inactive),> 100 µM (inactive),> 100 µM (inactive),4.06 µM (inactive)
COc1cc2c3c(c4ccc(OC)c(OC)c4c2cc1OC)CN1CCC[C@@H]1C3 [TYLOCREBRINE],< 0.0173 µM (active),0.0248 µM (active),0.0172 µM (active),0.0533 µM (active),0.0266 µM (active),0.0316 µM (active),< 0.0246 µM (active),0.0428 µM (active),0.0333 µM (active),0.0548 µM (active),0.043 µM (active),0.016 µM (active),0.0313 µM (active),< 0.0166 µM (active),0.0395 µM (active),< 0.0153 µM (active),0.0564 µM (active),0.0163 µM (active),0.0612 µM (active),< 0.01 µM (active)
CC(=O)Nc1ccc(-c2nc3ccccc3s2)cc1Cl,> 78.3 µM (inactive),55.6 µM (inactive),5.6 µM (inactive),0.23 µM (active),58.7 µM (inactive),22.7 µM (inactive),54.2 µM (inactive),57.4 µM (inactive),68.7 µM (inactive),< 0.0399 µM (active),> 83.4 µM (inactive),51.4 µM (inactive),54.5 µM (inactive),> 86.9 µM (inactive),41.9 µM (inactive),> 100 µM (inactive),> 100 µM (inactive),67.5 µM (inactive),> 41.1 µM (inactive),> 73.5 µM (inactive)
C[C@]12CC[C@@H]3c4cc(OCC(F)(F)F)c(O)cc4CC[C@H]3[C@@H]1CC[C@@H]2O,3.24 µM (inactive),6.3 µM (inactive),8.17 µM (inactive),5.93 µM (inactive),1.9 µM (inactive),11.6 µM (inactive),9.31 µM (inactive),4.06 µM (inactive),1.52 µM (inactive),2.36 µM (inactive),1 µM (active),4.75 µM (inactive),0.558 µM (active),2.24 µM (inactive),1.54 µM (inactive),4.55 µM (inactive),1.86 µM (inactive),2.75 µM (inactive),7.1 µM (inactive),2.32 µM (inactive)
COC1C=COC2(C)Oc3c(C)c(O)c4c(c3C2=O)/C(=N/C2CCC(O)OC2C)C=C(NC(=O)/C(C)=C\C(=O)C2CC2C(O)C(C)C(O)C(C)C(OC(C)=O)C1C)C4=O (stereo not given),1.66 µM (inactive),2.54 µM (inactive),3.13 µM (inactive),2.47 µM (inactive),1.79 µM (inactive),3.04 µM (inactive),2.07 µM (inactive),2.84 µM (inactive),1.97 µM (inactive),1.89 µM (inactive),1.94 µM (inactive),1.79 µM (inactive),0.946 µM (active),14.2 µM (inactive),3.72 µM (inactive),3.48 µM (inactive),1.61 µM (inactive),3.47 µM (inactive),2.22 µM (inactive),2.01 µM (inactive)
COc1cc2c(cc1OC)C(OC)N(C)c1c-2ccc2cc3c(cc12)OCO3 (stereo not given),1.86 µM (inactive),2.26 µM (inactive),1.82 µM (inactive),1.65 µM (inactive),1.66 µM (inactive),1.4 µM (inactive),2.19 µM (inactive),0.839 µM (active),3.3 µM (inactive),1.24 µM (inactive),0.611 µM (active),1.67 µM (inactive),0.152 µM (active),26.8 µM (inactive),2.82 µM (inactive),1.98 µM (inactive),0.813 µM (active),0.665 µM (active),12.1 µM (inactive),0.8 µM (active)
Nc1ccc(-c2ccc(Nc3cc(S(=O)(=O)O)c(N)c4c3C(=O)c3ccccc3C4=O)cc2)c(S(=O)(=O)O)c1,> 100 µM (inactive),> 100 µM (inactive),> 100 µM (inactive),> 100 µM (inactive),> 100 µM (inactive),> 100 µM (inactive),> 100 µM (inactive),> 100 µM (inactive),> 100 µM (inactive),> 100 µM (inactive),41.8 µM (inactive),> 100 µM (inactive),> 100 µM (inactive),> 100 µM (inactive),> 100 µM (inactive),> 100 µM (inactive),> 100 µM (inactive),> 100 µM (inactive),> 100 µM (inactive),> 100 µM (inactive)
